In article PMC11354514, “Synthesis and Anti-Cancer Activity of the Novel Selective Glucocorticoid Receptor Agonists of the Phenylethanolamine Series” (International Journal of Molecular Sciences, 2024):
Where two headings read alike, the source gives them in different places.

Target: T1, glucocorticoid receptor (GR) (Homo sapiens, UniProt P04150)
T1 construct: gene NR3C1
T1 sequence (P04150 1-777): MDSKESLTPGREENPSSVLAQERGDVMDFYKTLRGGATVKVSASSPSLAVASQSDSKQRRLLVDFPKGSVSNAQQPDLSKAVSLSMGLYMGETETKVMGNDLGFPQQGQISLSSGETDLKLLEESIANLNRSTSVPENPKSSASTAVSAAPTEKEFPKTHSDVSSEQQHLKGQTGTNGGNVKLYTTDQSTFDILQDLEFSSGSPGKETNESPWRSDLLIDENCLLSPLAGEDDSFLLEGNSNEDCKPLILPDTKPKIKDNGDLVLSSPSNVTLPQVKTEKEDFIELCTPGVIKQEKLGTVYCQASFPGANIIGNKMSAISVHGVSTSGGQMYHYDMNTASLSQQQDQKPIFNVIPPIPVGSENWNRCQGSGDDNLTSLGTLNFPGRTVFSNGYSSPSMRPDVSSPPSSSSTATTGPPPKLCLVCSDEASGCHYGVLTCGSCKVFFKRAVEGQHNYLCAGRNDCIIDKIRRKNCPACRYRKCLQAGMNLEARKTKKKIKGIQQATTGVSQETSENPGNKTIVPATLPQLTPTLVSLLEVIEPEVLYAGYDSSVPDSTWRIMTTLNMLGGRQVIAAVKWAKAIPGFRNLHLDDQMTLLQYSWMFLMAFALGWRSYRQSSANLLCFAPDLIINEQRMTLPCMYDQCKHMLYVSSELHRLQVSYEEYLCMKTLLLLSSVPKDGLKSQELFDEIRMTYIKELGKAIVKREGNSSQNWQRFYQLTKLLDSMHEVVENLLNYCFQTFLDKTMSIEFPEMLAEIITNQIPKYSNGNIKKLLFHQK
Experiment: [3H]Dex competition radioligand binding in whole K562 cells (endogenous GR)
Assay type: cell-based

IC50 (read-out: IC50) [nM] | SMILES | IC50 [nM]
– | CNCC(Cl)c1ccc(OC(C)=O)cc1 (centres unmarked) [CpdA, 2-(4-acetoxyphenyl)-2-chloro-N-methylethylammonium-chloride] | 2500
150 | Oc1ccc(C(O)CN2CCCCC2)cc1 (centres unmarked) [CpdA-03, 4-(1-hydroxy-2-(piperidin-1-yl)ethyl)phenol] | –
